According to patent publication US10577382B2, “Fused heterocyclic compound” (TAKEDA PHARMACEUTICAL COMPANY LIMITED, priority 2016, dated 2020):

What was measured:
CLK2 enzyme = target: T1, CLK2 enzyme (Homo sapiens, UniProt P49760); assay: Measurement of CLK2 inhibitory activity (LANCE time-resolved fluorescence, ULight-labeled MBP peptide); format: biochemical; settings: compound 1 μM; ATP 1 mM; read-out: CLK2 activity inhibition ratio at compound concentration of 1 μM (ATP 1 mM)
T1 construct: purchased Thermo Fisher Scientific
T1 sequence (P49760 whole entry): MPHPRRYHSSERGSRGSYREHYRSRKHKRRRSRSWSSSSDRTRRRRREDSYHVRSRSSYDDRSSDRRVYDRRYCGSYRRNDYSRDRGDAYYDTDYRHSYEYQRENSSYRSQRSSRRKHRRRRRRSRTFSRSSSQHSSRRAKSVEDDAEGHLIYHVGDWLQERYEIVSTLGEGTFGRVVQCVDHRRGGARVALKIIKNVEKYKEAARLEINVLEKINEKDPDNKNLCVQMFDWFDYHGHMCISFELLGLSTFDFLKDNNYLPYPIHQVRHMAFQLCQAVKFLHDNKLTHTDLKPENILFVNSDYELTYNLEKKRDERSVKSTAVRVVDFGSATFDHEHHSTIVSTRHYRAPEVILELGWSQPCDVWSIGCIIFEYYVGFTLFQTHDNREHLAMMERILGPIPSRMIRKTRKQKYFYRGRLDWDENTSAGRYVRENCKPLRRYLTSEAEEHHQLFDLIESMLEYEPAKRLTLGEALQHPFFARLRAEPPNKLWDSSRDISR
Experimental: A test compound dissolved in DMSO was added to a reaction solution (50 mM HEPES (pH: 7.5), 10 mM MgCl2, 1 mM EGTA, 2 mM DTT, 0.01% Tween 20, 0.01% BSA) containing a CLK2 enzyme (Thermo Fisher Scientific) and an ULight-labeled MBP peptide (PerkinElmer), and the mixture was then reacted at room temperature for 10 minutes. An ATP solution was added to a final concentration of 1 mM to initiate an enzyme reaction, and the reaction was carried out at room temperature for 60 minutes. A europium-labeled anti-phosphorylated MBP antibody (PerkinElmer) and a LANCE Detection buffer (PerkinElmer) containing EDTA with a final concentration of 20 mM were added to stop the reaction, the mixture was left standing for 60 minutes, and the time-resolved fluorescence value (excitation 320 nm, and emission 615 nm and 665 nm) was measured by Envision (PerkinElmer). The inhibition ratio (%) of CLK2 by the test compound was calculated in accordance with the following expression. Inhibition ratio (%)=(1−(count of test compound−blank)÷(control−blank))×100
The count of the CLK2 enzyme reaction solution without addition of the compound was described as a control, and the count without addition of the compound and addition of the CLK2 enzyme was described as a blank. The concentration at which the inhibition ratio was 50% was defined as an IC50 value.

MDM4 protein = MDM4 protein amount in HCT116 cells (western blot); format: cell-based, human; settings: 300 nM, 16 hours, relative to control group
Experimental: 1000 μl (8,0000 cells/well) of a cell suspension of human colon adenocarcinoma cells HCT116 (purchased from ATCC) was seeded in a 12-well plate, and cultured at 37° C. for 2 days in a 5% CO2 gas incubator. The test compound solution was added to a final concentration of 300 nM, and the mixture was cultured for 16 hours. The plate was washed with PBS, a protein extract (10% glycerol, 1% sodium dodecyl sulfate, 62.5 mM Tris-HCl (pH: 7.5)) was then added to dissolve the cells, and the solution was treated at 95° C. for 5 minutes. Thereafter, the amount of protein was determined using BCA Protein Assay Kit (Thermo Fisher Scientific).
The amount of the protein in each sample was adjusted, SDS-PAGE was then performed, and the protein was transferred to a PVDF membrane using an iBlot (registered trademark) gel transfer system (Invitrogen). […] The membrane was washed in the same procedure as described above, a phosphorylated CLK2 protein, a MDM4 protein, a p53 protein and a p21 protein each labeled with an antibody were then made chemiluminescent using ImmunoStar ZETA (Wako Pure Chemical Industries, Ltd.), and luminescence was detected with LAS-3000 Image Analyzer (Fujifilm Corporation). The luminescence intensity was determined using Multi Gauge Ver. 3.1 (Fujifilm Corporation), and quantified. […]

[1] = system: MDM4 transcription product (MDM4 FL / MDM4 S); assay: In vitro MDM4 alternative splicing ratio in HCT116 cells (quantitative PCR); format: cell-based, human; settings: 300 nM, 6 hours, PSI = MDM4 FL/(MDM4 FL + MDM4 S) x 100, Control (DMSO) 75.75
Experimental: 1000 μl (20,0000 cells/well) of a cell suspension of human colon adenocarcinoma cells HCT116 (purchased from ATCC) was seeded in a 12-well plate, and cultured at 37° C. for 1 day in a 5% CO2 gas incubator. The test compound solution was added to a final concentration of 300 nM, and the mixture was cultured for 6 hours. The plate was washed with PBS, the cells were then dissolved using RNeasy Mini Kit (QIAGEN), and RNA was extracted. Using cDNA after reverse transcription reaction, the number of copies of the MDM4 transcription product containing exon 6 (MDM4 FL) and the MDM4 transcription product in which exon 6 was skipped (MDM4 S) was measured by quantitative PCR. Primers with the following sequences were used for the measurement.
Primers with the following sequences were used for the measurement.
The following oligos were used for preparing a calibration curve.
A change in MDM4 alternative splicing ratio (PSI) is calculated in accordance with the following expression, and changes caused by the test compound are shown in Table 8. PSI=(number of copies of MDM4 FL÷(number of copies of MDM4 FL+number of copies of MDM4 S))×100

SK-MEL-28-MYC cells = assay: Growth inhibitory action on MYC-induced SK-MEL-28-MYC cells (CellTiter-Glo); format: cell-based, human; settings: 125 nM, 3 days
Text: Human MYC cDNA was inserted downstream of the TRE of a lentiviral vector (modified pTRIPZ: GE Healthcare) having a tetracycline responsive sequence (TRE) in the promoter region. The produced virus was infected with human malignant melanoma cells SK-MEL-28 (purchased from ATCC) to establish SK-MEL-28 cells (SK-MEL-28-MYC) inducing expression of MYC in the presence of doxycycline (Takara Bio Inc.) which is a tetracycline derivative. SK-MEL-28 cells (SK-MEL-28-Control) having an empty vector with only modified pTRIPZ were also established. 20 μL/well of 2.5 μg/mL doxycycline-containing medium was added to a 96-well plate, and 80 μl/well (1,000 cells/well) of a cell suspension was added, and cultured at 37° C. for 2 days in a 5% CO2 gas incubator. Thereafter, 100 μl of a 250 nM test compound solution was added (final concentration: 125 nM), and the mixture was further cultured for 3 days. 50 µl/well of a CellTiter-Glo™ Luminescent Cell Viability Assay reagent (Promega Corporation) was added to a 96-well plate, the amount of luminescence was measured by a luminometer, and the amount of remaining ATP was determined as a cell amount. The inhibition ratio (%) of cell growth by the test compound was calculated in accordance with the following expression. Inhibition ratio (%)=(1−(amount of luminescence of test compound)÷(amount of luminescence of control group))×100

## COc1ncnn2ccc(-c3cnc4nc(C)n(Cc5nnc([C@@H](C)F)o5)c4c3)c12 [Example 286, 1-((5-((1R)-1-fluoroethyl)-1,3,4-oxadiazol-2-yl)methyl)-6-(4-methoxypyrrolo[2,1-f][1,2,4]triazin-5-yl)-2-methyl-1H-imidazo[4,5-b]pyridine]
CLK2 enzyme
  inhibition at 1 µM: 100%
MDM4 protein
  Residual ratio (MDM4): 43.6%
[1]
  PSI (MDM4 alternative splicing ratio): 45.81
SK-MEL-28-MYC cells; Doxycycline (+), MYC induced
  Inhibition ratio (%) of cell growth, Doxycycline (+): 69.3%
SK-MEL-28-MYC cells; Doxycycline (−)
  Inhibition ratio (%) of cell growth, Doxycycline (−): 24.7%
